Patent US8354419B2, “Benzimidazole analogues for the treatment or prevention of flavivirus infections” (Vertex Pharmaceuticals Incorporated, priority 2009, dated 2013)

Each compound was assayed on HCV (Ib) RNA replication (assay: Cell-based luciferase reporter HCV (1b) RNA replication assay (replicon cell lines Huh-7 5.2 and ET)). Conditions: Hepatitis C virus, Huh-7, 96 h, HCV 1b genotype replicon, luciferase readout, 4 days incubation; read-out: EC50_1b.
Set-up: species or system Hepatitis C virus
Excerpt: Cell-Based Luciferase Reporter HCV (Ib) RNA Replication Assay Cell Culture
Replicon cell lines Huh-7, 5.2 and ET which are derived from the Huh-7 hepatocarcinoma cell line are maintained in culture as generally described in Krieger, N; Lohmann, V; Bartenschlager, R. Enhancement of hepatitis C virus RNA replication by cell culture-adaptive mutations. J. Virol. 2001, 75, 4614-4624. The Huh-7, 5.2 cells contain the highly cell culture-adapted replicon I389luc-ubi-neo/NS3-3′/5.1 construct that carries, in addition to the neomycin gene, an integrated copy to the firefly luciferase gene (Krieger, N; Lohmann, V; Bartenschlager, R. Enhancement of hepatitis C virus RNA replication by cell culture-adaptive mutations. J. Virol. 2001, 75, 4614-4624). This cell line allows measurement of HCV RNA replication and translation by measuring luciferase activity. It has been previously shown that the luciferase activity tightly follows the replicon RNA level in these cells (Krieger, N; Lohmann, V; Bartenschlager, R. Enhancement of hepatitis C virus RNA replication by cell culture-adaptive mutations. J. Virol. 2001, 75, 4614-4624). The Huh-7, ET cell line has the same features as those mentioned for Huh-7, 5.2 cell line, except that ET cells are more robust and contain an adaptative mutation in the HCV NS4B gene instead of NS5A. Both cell lines are maintained in cultures at a sub-confluent level (<85%) as the level of replicon RNA is highest in actively proliferating cells. The culture media used for cell passaging consist of DMEM (Gibco BRL Laboratories, Mississauga, ON, Canada) supplemented with 10% foetal bovine serum with 1% penicillin/streptomycin, 1% glutamine, 1% sodium pyruvate, 1% non-essential amino acids, and 180 ug/ml of G418 final concentration. Cells are incubated at 37° C., in an atmosphere of 5% CO2 and passaged twice a week to maintain sub-confluence.
Approximately 3000 viable Huh-7, 5.2 or ET cells (100 μl) are plated per well in a white opaque 96-well microtiter plate. The cell culture media used for the assay is the same as described above except that it contains no G418 and no phenol red. After an incubation period of 3-4 hours at 37° C. in a 5% CO2 incubator, compounds (100 μl) are added at various concentrations. Cells are then further incubated for 4 days at 37° C. in a 5% CO2 incubator. Thereafter, the culture media is removed and cells are lysed by the addition of 95 μL of the luciferase buffer (luciferin substrate in buffered detergent). Cell lysates are incubated at room temperature and protected from direct light for at least 10 minutes. Plates are read for luciferase counts using a luminometer (Wallac MicroBeta Trilux, Perkin ELmer™, MA, USA).
The 50% inhibitory concentrations (IC50s) for inhibitory effect are determined from dose response curves using eleven concentrations per compound in duplicate. Curves are fitted to data points using nonlinear regression analysis, and IC50s are interpolated from the resulting curve using GraphPad Prism software, version 2.0 (GraphPad Software Inc., San Diego, Calif., USA).
Table 2 show compounds representative of the present invention and the EC50 values against the HCV 1b genotype.
Compound `O=C(OCc1ccccc1)N1CCC[C@H]1c1nc2cc(C#Cc3ccc4[nH]c([C@@H]5CCCN5C(=O)OCc5ccccc5)nc4c3)ccc2[nH]1` [Compound 31, (S)-2-{5-[2-((S)-1-Benzyloxycarbonyl-pyrrolidin-2-yl)-1H-benzoimidazol-5-ylethynyl]-1H-benzoimidazol-2-yl}-pyrrolidine-1-carboxylic acid benzyl ester] has an EC50 of 5 to 5000 nM. `O=C([C@H]1CCCO1)N1CCC[C@H]1c1nc2cc(C#Cc3ccc4nc([C@@H]5CCCN5C(=O)[C@H]5CCCO5)[nH]c4c3)ccc2[nH]1` [Compound 32, [(S)-5-(5-{2-[(S)-1-((R)-tetrahydro-furan-2-carbonyl)-pyrrolidin-2-yl]-1H-benzoimidazol-5-ylethynyl}-1H-benzoimidazol-2-yl)-pyrrolidin-1-yl]-(R)-tetrahydro-furan-2-yl-methanone] gave an EC50 of 5 to 5000 nM. `COC(=O)N[C@@H](C(=O)N1CCC[C@H]1c1nc2cc(C#Cc3ccc4[nH]c([C@@H]5CCCN5C(=O)[C@H](NC(=O)OC)c5ccccc5)nc4c3)ccc2[nH]1)c1ccccc1` [Compound 33, {(R)-2-[(S)-2-(5-{2-[(S)-1-((R)-2-Methoxycarbonylamino-2-phenyl-acetyl)-pyrrolidin-2-yl]-1H-benzoimidazol-5-ylethynyl}-1H-benzoimidazol-2-yl)-pyrrolidin-1-yl]-2-oxo-1-phenyl-ethyl}-carbamic acid methylester] gave an EC50 of at most 5 nM. Work on `COC(=O)N[C@H](C(=O)N1CCC[C@H]1c1nc2cc(C#Cc3ccc4[nH]c([C@@H]5CCCN5C(=O)OC(C)(C)C)nc4c3)ccc2[nH]1)C(C)C` [Compound 34, (S)-2-(5-{2-[(S)-1-((S)-2-Methoxycarbonylamino-3-methyl-butyryl)-pyrrolidin-2-yl]-1H-benzoimidazol-5-ylethynyl}-1H-benzoimidazol-2-yl)-pyrrolidine-1-carboxylic acid tert-butyl ester] yielded an EC50 of 5 to 5000 nM. `COC(=O)N[C@H](C(=O)N1CCC[C@H]1c1nc2cc(C#Cc3ccc4[nH]c([C@@H]5CCCN5C(=O)[C@@H](NC(=O)OC)C(C)(C)C)nc4c3)ccc2[nH]1)C(C)C` [Compound 36, {(S)-1-[(S)-2-(5-{2-[(S)-1-((S)-2-Methoxycarbonylamino-3-methyl-butyryl)-pyrrolidin-2-yl]-1H-benzoimidazol-5-ylethynyl}-1H-benzoimidazol-2-yl)-pyrrolidine-1-carbonyl]-2,2-dimethyl-propyl}-carbamic acid methyl ester] gave an EC50 of at most 5 nM. Compound `COC(=O)N[C@H](C(=O)N1CCC[C@H]1c1nc2cc(C#Cc3ccc4[nH]c([C@@H]5CCCN5C(=O)[C@@H](NC(=O)OC)C(C)C)nc4c3)ccc2[nH]1)C(C)C` [Compound 37, {(S)-1-[(S)-2-(5-{2-[(S)-1-((S)-2-Methoxycarbonylamino-3-methyl-butyryl)-pyrrolidin-2-yl]-1H-benzoimidazol-5-ylethynyl}-1H-benzoimidazol-2-yl)-pyrrolidine-1-carbonyl]-2-methyl-propyl}-carbamic acid methyl ester] has an EC50 of at most 5 nM. Compound `COC(=O)N[C@H](C(=O)N1CCC[C@H]1c1nc2cc(C#Cc3ccc4[nH]c([C@@H]5CCCN5C(=O)[C@H]5CCCO5)nc4c3)ccc2[nH]1)C(C)C` [Compound 38, {(S)-2-Methyl-1-[(S)-2-(5-{2-[(S)-1-((R)-tetrahydro-furan-2-carbonyl)-pyrrolidin-2-yl]-1H-benzoimidazol-5-ylethynyl}-1H-benzoimidazol-2-yl)-pyrrolidine-1-carbonyl]-propyl}-carbamic acid methyl ester] has an EC50 of at most 5 nM. `COC(=O)N[C@H](C(=O)N1CCC[C@H]1c1nc2cc(C#Cc3ccc4[nH]c([C@@H]5CCCN5C(=O)[C@H](NC(=O)OC)c5ccccc5)nc4c3)ccc2[nH]1)C(C)C` [Compound 39, {(S)-1-[(S)-2-(5-{2-[(S)-1-((R)-2-Methoxycarbonylamino-2-phenyl-acetyl)-pyrrolidin-2-yl]-1H-benzoimidazol-5-ylethynyl}-1H-benzoimidazol-2-yl)-pyrrolidine-1-carbonyl]-2-methyl-propyl}-carbamic acid methyl ester] showed an EC50 of at most 5 nM. `O=C(OCc1ccccc1)N1CCCC[C@H]1c1nc2cc(C#C/C=C/c3ccc4[nH]c([C@@H]5CCCCN5C(=O)OCc5ccccc5)nc4c3)ccc2[nH]1` [Compound 40, (S)-2-(5-{(E)-4-[2-((S)-1-Benzyloxycarbonyl-piperidin-2-yl)-1H-benzoimidazol-5-yl]-but-1-en-3-ynyl}-1H-benzoimidazol-2-yl)-piperidine-1-carboxylic acid benzyl ester] was tested, and the EC50 was 5 to 5000 nM. Work on `O=C(OCc1ccccc1)N1CCCC[C@H]1c1nc2cc(C#CC#Cc3ccc4[nH]c([C@@H]5CCCCN5C(=O)OCc5ccccc5)nc4c3)ccc2[nH]1` [Compound 41, (S)-2-(5-{4-[2-((S)-1-Benzyloxycarbonyl-piperidin-2-yl)-1H-benzoimidazol-5-yl]-buta-1,3-diynyl}-1H-benzoimidazol-2-yl)-piperidine-1-carboxylic acid benzyl ester] yielded an EC50 of 5 to 5000 nM. With `COC(=O)N[C@H](C(=O)N1CCC[C@H]1c1nc2cc(-c3cc(F)c(-c4ccc5nc([C@@H]6CCCN6C(=O)[C@@H](NC(=O)OC)C(C)C)[nH]c5c4)cc3F)ccc2[nH]1)C(C)C` [Compound 42, ((S)-1-{(S)-2-[5-(4-{2-[(S)-1-((S)-2-Methoxycarbonylamino-3-methyl-butyryl)-pyrrolidin-2-yl]-1H-benzoimidazol-5-yl}-2,5-difluoro-phenyl)-1H-benzoimidazol-2-yl]-pyrrolidine-1-carbonyl}-2-methyl-propyl)-carbamicacid methyl ester] the EC50 was at most 5 nM. For `COC(=O)N[C@H](C(=O)N1CCC[C@H]1c1nc2cc(-c3cnc(-c4ccc5[nH]c([C@@H]6CCCN6C(=O)[C@@H](NC(=O)OC)C(C)C)nc5c4)c(C)c3)ccc2[nH]1)C(C)C` [Compound 43, Methyl N-[(1S)-1-[(2S)-2-[5-[5-[2-[(2S)-1-[(2S)-2-(methoxycarbonylamino)-3-methyl-butanoyl]pyrrolidin-2-yl]-1H-benzimidazol-5-yl]-3-methyl-2-pyridyl]-1H-benzimidazol-2-yl]pyrrolidine-1-carbonyl]-2-methyl-propyl]carbamate], the EC50 was at most 5 nM. In the case of `COC(=O)N[C@H](C(=O)N1CCC[C@H]1c1nc2cc(-c3cscc3-c3ccc4[nH]c([C@@H]5CCCN5C(=O)[C@@H](NC(=O)OC)C(C)C)nc4c3)ccc2[nH]1)C(C)C` [Compound 44, Dimethyl-(2S,2′S)-1,1′-((2S,2′S)-2,2′-(5,5′-(thiophene-3,4-diyl)bis(1H-benzo[d]imidazole-5,2-diyl))bis(pyrrolidine-2,1-diyl))bis(3-methyl-1-oxobutane-2,1-diyl)dicarbamate], the EC50 is reported as at most 5 nM. `CC(C)[C@H](NC(=O)O[C@H]1CCOC1)C(=O)N1CCC[C@H]1c1nc2cc(-c3cscc3-c3ccc4[nH]c([C@@H]5CCCN5C(=O)[C@@H](NC(=O)O[C@H]5CCOC5)C(C)C)nc4c3)ccc2[nH]1` [Compound 45, bis((S)-tetrahydrofuran-3-yl)-(2S,2′S)-1,1′-((2S,2′S)-2,2′-(5,5′-(thiophene-3,4-diyl)bis(1H-benzo[d]imidazole-5,2-diyl))bis(pyrrolidine-2,1-diyl))bis(3-methyl-1-oxobutane-2,1-diyl)dicarbamate] showed an EC50 of 5 to 5000 nM. With `CC(C)[C@H](NC(=O)O[C@H]1CCOC1)C(=O)N1CCC[C@H]1c1nc2cc(-c3ccsc3-c3ccc4[nH]c([C@@H]5CCCN5C(=O)[C@@H](NC(=O)O[C@H]5CCOC5)C(C)C)nc4c3)ccc2[nH]1` [Compound 47, bis((S)-tetrahydrofuran-3-yl)-(2S,2′S)-1,1′-((2S,2′S)-2,2′-(5,5′-(thiophene-2,3-diyl)bis(1H-benzo[d]imidazole-5,2-diyl))bis(pyrrolidine-2,1-diyl))bis(3-methyl-1-oxobutane-2,1-diyl)dicarbamate] the EC50 was 5 to 5000 nM. `CC(C)(C)OC(=O)N1CCCC[C@H]1c1nc2cc(C#Cc3ccc4nc([C@@H]5CSCN5C(=O)OC(C)(C)C)[nH]c4c3)ccc2[nH]1` [Compound 48] gave an EC50 of over 5000 nM. `O=C(OCc1ccccc1)N1CCCC[C@H]1c1nc2cc(C#Cc3ccc4nc([C@@H]5CCCN5C(=O)OCc5ccccc5)[nH]c4c3)ccc2[nH]1` [Compound 49] was tested, and the EC50 was 5 to 5000 nM.
